The source of these data is patent publication US8846928B2 (Portola Pharmaceuticals, Inc., priority 2010, dated 2014).

Structures are written as SMILES. pIC50: −log10 of the molar value. A value given as a limit tells only on which side of the number the result lay.

As usually defined, the pIC50 is the negative decadic logarithm of the IC50, by convention in mol/L.

For this assay, the target named is T1, full length active recombinant SYK enzyme (Homo sapiens, UniProt P43405).
T1 construct: full length active recombinant SYK enzyme (Millipore, Calif.); purchased Millipore
The assay is described as follows: Inhibition of Syk tyrosine phosphorylation activity (LANCE TR-FRET kinase assay). The assay is classed as biochemical. (In general: Time-resolved FRET reads energy transfer from a long-lived donor to a nearby acceptor.)
Take `Cc1ccc(Nc2nc(N[C@@H]3CCCC[C@@H]3N)c(F)cc2C(N)=O)cc1` [Example 315, 6-((1R,2S)-2-aminocyclohexylamino)-5-fluoro-2-(p-tolylamino)nicotinamide]: the pIC50 was 8.00 to 9.00.
In the case of `NC(=O)c1cc(F)c(N[C@@H]2CCCC[C@@H]2N)nc1Nc1cccc(F)c1` [Example 316, 6-((1R,2S)-2-aminocyclohexylamino)-5-fluoro-2-(3-fluorophenylamino)nicotinamide] it was 8.00 to 9.00.
Under `NC(=O)c1cc(F)c(N[C@@H]2CCCC[C@@H]2N)nc1Nc1cccc(Cl)c1` [Example 317, 6-((1R,2S)-2-aminocyclohexylamino)-2-(3-chlorophenylamino)-5-fluoronicotinamide] stands 8.00 to 9.00.
In the case of `NC(=O)c1cc(F)c(N[C@@H]2CCCC[C@@H]2N)nc1Nc1ccc(Cl)cc1` [Example 318, 6-((1R,2S)-2-aminocyclohexylamino)-2-(4-chlorophenylamino)-5-fluoronicotinamide] it was 7.00 to 8.00.
`Cc1cccc(Nc2nc(N[C@@H]3CCCC[C@@H]3N)c(F)cc2C(N)=O)c1C` [Example 319, 6-((1R,2S)-2-aminocyclohexylamino)-2-(2,3-dimethylphenylamino)-5-fluoronicotinamide]: the pIC50 was 7.00 to 8.00.
As to `Cc1cc(C)cc(Nc2nc(N[C@@H]3CCCC[C@@H]3N)c(F)cc2C(N)=O)c1` [Example 320, 6-((1R,2S)-2-aminocyclohexylamino)-2-(3,5-dimethylphenylamino)-5-fluoronicotinamide], the pIC50 is 8.00 to 9.00.
Take `Cc1cc(F)cc(Nc2nc(N[C@@H]3CCCC[C@@H]3N)c(F)cc2C(N)=O)c1` [Example 321, 6-((1R,2S)-2-aminocyclohexylamino)-5-fluoro-2-(3-fluoro-5-methylphenylamino)nicotinamide]: the pIC50 was over 9.00.
For `Cc1cc(Nc2nc(N[C@@H]3CCCC[C@@H]3N)c(F)cc2C(N)=O)ccc1F` [Example 322, 6-((1R,2S)-2-aminocyclohexylamino)-5-fluoro-2-(4-fluoro-3-methylphenylamino)nicotinamide], the pIC50 was 8.00 to 9.00.
In the case of `Cc1ccc(Nc2nc(N[C@@H]3CCCC[C@@H]3N)c(F)cc2C(N)=O)cc1F` [Example 323] it was 8.00 to 9.00; in that of `NC(=O)c1cc(F)c(N[C@@H]2CCCC[C@@H]2N)nc1Nc1cc(F)cc(F)c1` [Example 324, 6-((1R,2S)-2-aminocyclohexylamino)-2-(3,5-difluorophenylamino)-5-fluoronicotinamide], 8.00 to 9.00.
Turning to `NC(=O)c1cc(F)c(N[C@@H]2CCCC[C@@H]2N)nc1Nc1cc(F)cc(Cl)c1` [Example 325, 6-((1R,2S)-2-aminocyclohexylamino)-2-(3-chloro-5-fluorophenylamino)-5-fluoronicotinamide], the pIC50 is 8.00 to 9.00.
As for `COc1cc(F)cc(Nc2nc(N[C@@H]3CCCC[C@@H]3N)c(F)cc2C(N)=O)c1` [Example 326, 6-((1R,2S)-2-aminocyclohexylamino)-5-fluoro-2-(3-fluoro-5-methoxyphenylamino)nicotinamide], the pIC50 is over 9.00.
Under `NC(=O)c1cc(F)c(N[C@@H]2CCCC(F)(F)[C@@H]2N)nc1Nc1cccc2ncccc12` [Example 327, 6-((1R,2R)-2-amino-3,3-difluorocyclohexylamino)-5-fluoro-2-(quinolin-5-ylamino)nicotinamide] stands 6.00 to 7.00.
Regarding `NC(=O)c1cc(F)c(N[C@@H]2CCCC(F)(F)[C@@H]2N)nc1Nc1ccc2ncsc2c1` [Example 328, 6-((1R,2R)-2-amino-3,3-difluorocyclohexylamino)-2-(benzo[d]thiazol-6-ylamino)-5-fluoronicotinamide], the pIC50 was 7.00 to 8.00.
Turning to `NC(=O)c1cc(F)c(N[C@@H]2CCCC(F)(F)[C@@H]2N)nc1Nc1cccc2ncsc12` [Example 329, 6-((1R,2R)-2-amino-3,3-difluorocyclohexylamino)-2-(benzo[d]thiazol-7-ylamino)-5-fluoronicotinamide], the pIC50 is 6.00 to 7.00.
